Data as given in patent publication US11470846B2, “Herbicidal pyridino-/pyrimidino-thiazoles” (SYNGENTA PARTICIPATIONS AG, priority 2014, dated 2022).

Experiments:
Format in all cases: in vivo
[1] = tested on: Lolium perenne (LOLPE); experiment: Post-emergence herbicidal activity; conditions: post-emergence application, 1000 g/Ha, evaluated after 13 days, scale 0-5; Table 7
Experimental: (§1) B2 Post-Emergence Herbicidal Activity
(§2) Seeds of a variety of test species were sown in standard soil in pots: Triticum aestivium (TRZAW), Oryza sativa (ORYSA), Avena fatua (AVEFA), Alopecurus myosuroides (ALOMY), Echinochloa crus-galli (ECHCG), Lolium perenne (LOLPE), Zea Mays (ZEAMX), Abutilon theophrasti (ABUTH), Amaranthus retroflexus (AMARE) and Setaria faberi (SETFA). After 8 days cultivation (post-emergence) under controlled conditions in a glasshouse (at 24/16° C., day/night; 14 hours light; 65% humidity), the plants were sprayed with an aqueous spray solution derived from the formulation of the technical active ingredient in acetone/water (50:50) solution containing 0.5% Tween 20 (polyoxyethelyene sorbitan monolaurate, CAS RN 9005-64-5). The test plants were then grown in a glasshouse under controlled conditions (at 24/16° C., day/night; 14 hours light; 65% humidity) and watered twice daily. After 13 days, the test was evaluated (5=total damage to plant; 0=no damage to plant).

[2] = tested on: Echinochloa crus-galli (ECHCG); experiment: Post-emergence herbicidal activity; conditions: post-emergence application, 1000 g/Ha, evaluated after 13 days, scale 0-5; Table 7
Experimental: as §1, §2

[3] = tested on: Alopecurus myosuroides (ALOMY); experiment: Post-emergence herbicidal activity; conditions: post-emergence application, 1000 g/Ha, evaluated after 13 days, scale 0-5
Experimental: as §1, §2

[4] = tested on: Avena fatua (AVEFA); experiment: Post-emergence herbicidal activity; conditions: post-emergence application, 1000 g/Ha, evaluated after 13 days, scale 0-5
Experimental: as §1, §2

[5] = tested on: Oryza sativa (ORYSA); experiment: Post-emergence herbicidal activity; conditions: post-emergence application, 1000 g/Ha, evaluated after 13 days, scale 0-5
Experimental: as §1, §2

[6] = tested on: Triticum aestivium (TRZAW); experiment: Post-emergence herbicidal activity; conditions: post-emergence application, 1000 g/Ha, evaluated after 13 days, scale 0-5
Experimental: as §1, §2

[7] = tested on: Lolium perenne (LOLPE); experiment: Pre-emergence herbicidal activity; conditions: pre-emergence application, 1000 g/Ha, evaluated after 13 days, scale 0-5; Table 5
Experimental: (§3) B1 Pre-Emergence Herbicidal Activity
as §2, with “After” for “After 8 days”, “for one day (pre-emergence)” for “(post-emergence)”

[8] = tested on: Echinochloa crus-galli (ECHCG); experiment: Pre-emergence herbicidal activity; conditions: pre-emergence application, 1000 g/Ha, evaluated after 13 days, scale 0-5; Table 5
Experimental: as §3
as §2, with “After” for “After 8 days”, “for one day (pre-emergence)” for “(post-emergence)”

[9] = tested on: Alopecurus myosuroides (ALOMY); experiment: Pre-emergence herbicidal activity; conditions: pre-emergence application, 1000 g/Ha, evaluated after 13 days, scale 0-5
Experimental: as §3
as §2, with “After” for “After 8 days”, “for one day (pre-emergence)” for “(post-emergence)”

[10] = tested on: Avena fatua (AVEFA); experiment: Pre-emergence herbicidal activity; conditions: pre-emergence application, 1000 g/Ha, evaluated after 13 days, scale 0-5
Experimental: as §3
as §2, with “After” for “After 8 days”, “for one day (pre-emergence)” for “(post-emergence)”

[11] = tested on: Oryza sativa (ORYSA); experiment: Pre-emergence herbicidal activity; conditions: pre-emergence application, 1000 g/Ha, evaluated after 13 days, scale 0-5
Experimental: as §3
as §2, with “After” for “After 8 days”, “for one day (pre-emergence)” for “(post-emergence)”

[12] = tested on: Triticum aestivium (TRZAW); experiment: Pre-emergence herbicidal activity; conditions: pre-emergence application, 1000 g/Ha, evaluated after 13 days, scale 0-5
Experimental: as §3
as §2, with “After” for “After 8 days”, “for one day (pre-emergence)” for “(post-emergence)”

## Cc1nc(-c2cccnc2)sc1N(C)C(=O)OC(C)(C)C [Compound A1, tert-butyl N-methyl-N-[4-methyl-2-(3-pyridyl)thiazol-5-yl]carbamate]
[1]
  Control of weed species, LOLPE (damage score): 4
[2]
  Control of weed species, ECHCG (damage score): 4
[3]
  Control of weed species, ALOMY (damage score): 0
[4]
  Control of weed species, AVEFA (damage score): 4
[5]
  Control of weed species, ORYSA (damage score): 1
[6]
  Control of weed species, TRZAW (damage score): 0
[7]
  Control of weed species, LOLPE (damage score): 2
[8]
  Control of weed species, ECHCG (damage score): 4
[9]
  Control of weed species, ALOMY (damage score): 2
[10]
  Control of weed species, AVEFA (damage score): 4
[11]
  Control of weed species, ORYSA (damage score): 2
[12]
  Control of weed species, TRZAW (damage score): 2

## COC(=O)N(C)c1sc(-c2cccnc2)nc1C [Compound A18]
[1]
  Control of weed species, LOLPE (damage score): 2
[2]
  Control of weed species, ECHCG (damage score): 5
[3]
  Control of weed species, ALOMY (damage score): 1
[4]
  Control of weed species, AVEFA (damage score): 3
[5]
  Control of weed species, ORYSA (damage score): 0
[6]
  Control of weed species, TRZAW (damage score): 1
[7]
  Control of weed species, LOLPE (damage score): 2
[8]
  Control of weed species, ECHCG (damage score): 5
[9]
  Control of weed species, ALOMY (damage score): 1
[10]
  Control of weed species, AVEFA (damage score): 2
[11]
  Control of weed species, ORYSA (damage score): 0
[12]
  Control of weed species, TRZAW (damage score): 1

## Cc1nc(-c2cncc(C(N)=O)c2)sc1N(C)C(=O)OC(C)(C)C [Compound A8]
[1]
  Control of weed species, LOLPE (damage score): 0
[2]
  Control of weed species, ECHCG (damage score): 3
[3]
  Control of weed species, ALOMY (damage score): 1
[4]
  Control of weed species, AVEFA (damage score): 2
[5]
  Control of weed species, ORYSA (damage score): 1
[6]
  Control of weed species, TRZAW (damage score): 2
[7]
  Control of weed species, LOLPE (damage score): 0
[8]
  Control of weed species, ECHCG (damage score): 0
[9]
  Control of weed species, ALOMY (damage score): 0
[10]
  Control of weed species, AVEFA (damage score): 0
[11]
  Control of weed species, ORYSA (damage score): 0
[12]
  Control of weed species, TRZAW (damage score): 0

## Cc1nc(-c2cncc(OC(F)F)c2)sc1N(C)C(=O)OC(C)(C)C [Compound A16, tert-butyl N-[2-[5-(difluoromethoxy)-3-pyridyl]-4-methyl-thiazol-5-yl]-N-methyl-carbamate]
[1]
  Control of weed species, LOLPE (damage score): 4
[2]
  Control of weed species, ECHCG (damage score): 5
[3]
  Control of weed species, ALOMY (damage score): 3
[4]
  Control of weed species, AVEFA (damage score): 5
[5]
  Control of weed species, ORYSA (damage score): 0
[6]
  Control of weed species, TRZAW (damage score): 4
[7]
  Control of weed species, LOLPE (damage score): 4
[8]
  Control of weed species, ECHCG (damage score): 4
[9]
  Control of weed species, ALOMY (damage score): 0
[10]
  Control of weed species, AVEFA (damage score): 3
[11]
  Control of weed species, ORYSA (damage score): 1
[12]
  Control of weed species, TRZAW (damage score): 3

## CN(C(=O)OC(C)(C)C)c1sc(-c2cccnc2)nc1Cl [Compound A29]
[1]
  Control of weed species, LOLPE (damage score): 4
[2]
  Control of weed species, ECHCG (damage score): 5
[3]
  Control of weed species, ALOMY (damage score): 1
[4]
  Control of weed species, AVEFA (damage score): 4
[5]
  Control of weed species, ORYSA (damage score): 1
[6]
  Control of weed species, TRZAW (damage score): 1
[7]
  Control of weed species, LOLPE (damage score): 2
[8]
  Control of weed species, ECHCG (damage score): 3
[9]
  Control of weed species, ALOMY (damage score): 1
[10]
  Control of weed species, AVEFA (damage score): 2
[11]
  Control of weed species, ORYSA (damage score): 2
[12]
  Control of weed species, TRZAW (damage score): 3

## Cc1nc(-c2cncc(S(C)(=O)=O)c2)sc1N(C)C(=O)OC(C)(C)C [Compound A9]
[1]
  Control of weed species, LOLPE (damage score): 1
[2]
  Control of weed species, ECHCG (damage score): 2
[3]
  Control of weed species, ALOMY (damage score): 1
[4]
  Control of weed species, AVEFA (damage score): 2
[5]
  Control of weed species, ORYSA (damage score): 1
[6]
  Control of weed species, TRZAW (damage score): 2
[7]
  Control of weed species, LOLPE (damage score): 0
[8]
  Control of weed species, ECHCG (damage score): 0
[9]
  Control of weed species, ALOMY (damage score): 0
[10]
  Control of weed species, AVEFA (damage score): 0
[11]
  Control of weed species, ORYSA (damage score): 0
[12]
  Control of weed species, TRZAW (damage score): 0

## CN(C(=O)OC(C)(C)C)c1sc(-c2cncnc2)nc1C(F)(F)F [Compound A26]
[1]
  Control of weed species, LOLPE (damage score): 4
[2]
  Control of weed species, ECHCG (damage score): 5
[3]
  Control of weed species, ALOMY (damage score): 0
[4]
  Control of weed species, AVEFA (damage score): 5
[5]
  Control of weed species, ORYSA (damage score): 2
[6]
  Control of weed species, TRZAW (damage score): 1
[7]
  Control of weed species, LOLPE (damage score): 3
[8]
  Control of weed species, ECHCG (damage score): 4
[9]
  Control of weed species, ALOMY (damage score): 2
[10]
  Control of weed species, AVEFA (damage score): 4
[11]
  Control of weed species, ORYSA (damage score): 1
[12]
  Control of weed species, TRZAW (damage score): 0

## Cc1nc(-c2cncc(N)c2)sc1N(C)C(=O)OC(C)(C)C [Compound A11]
[1]
  Control of weed species, LOLPE (damage score): 1
[2]
  Control of weed species, ECHCG (damage score): 2
[3]
  Control of weed species, ALOMY (damage score): 1
[4]
  Control of weed species, AVEFA (damage score): 1
[5]
  Control of weed species, ORYSA (damage score): 1
[6]
  Control of weed species, TRZAW (damage score): 2
[7]
  Control of weed species, LOLPE (damage score): 0
[8]
  Control of weed species, ECHCG (damage score): 2
[9]
  Control of weed species, ALOMY (damage score): 1
[10]
  Control of weed species, AVEFA (damage score): 1
[11]
  Control of weed species, ORYSA (damage score): 2
[12]
  Control of weed species, TRZAW (damage score): 2

## CN(C(=O)OC(C)(C)C)c1sc(-c2cncc(F)c2)nc1Br [Compound A51]
[1]
  Control of weed species, LOLPE (damage score): 2
[2]
  Control of weed species, ECHCG (damage score): 4
[3]
  Control of weed species, ALOMY (damage score): 0
[4]
  Control of weed species, AVEFA (damage score): 4
[5]
  Control of weed species, ORYSA (damage score): 0
[6]
  Control of weed species, TRZAW (damage score): 0
[7]
  Control of weed species, LOLPE (damage score): 3
[8]
  Control of weed species, ECHCG (damage score): 1
[9]
  Control of weed species, ALOMY (damage score): 0
[10]
  Control of weed species, AVEFA (damage score): 2
[11]
  Control of weed species, ORYSA (damage score): 0
[12]
  Control of weed species, TRZAW (damage score): 0

## CN(C(=O)OC(C)(C)C)c1sc(-c2cncc(F)c2)nc1I [Compound A52]
[1]
  Control of weed species, LOLPE (damage score): 3
[2]
  Control of weed species, ECHCG (damage score): 4
[3]
  Control of weed species, ALOMY (damage score): 1
[4]
  Control of weed species, AVEFA (damage score): 4
[5]
  Control of weed species, ORYSA (damage score): 0
[6]
  Control of weed species, TRZAW (damage score): 1
[7]
  Control of weed species, LOLPE (damage score): 3
[8]
  Control of weed species, ECHCG (damage score): 2
[9]
  Control of weed species, ALOMY (damage score): 0
[10]
  Control of weed species, AVEFA (damage score): 3
[11]
  Control of weed species, ORYSA (damage score): 1
[12]
  Control of weed species, TRZAW (damage score): 0

## Cc1nc(-c2cncnc2)sc1N(C)C(=O)OC(C)(C)C [Compound A2, tert-butyl N-methyl-N-(4-methyl-2-pyrimidin-5-yl-thiazol-5-yl)carbamate]
[1]
  Control of weed species, LOLPE (damage score): 3
[2]
  Control of weed species, ECHCG (damage score): 5
[3]
  Control of weed species, ALOMY (damage score): 1
[4]
  Control of weed species, AVEFA (damage score): 5
[5]
  Control of weed species, ORYSA (damage score): 1
[6]
  Control of weed species, TRZAW (damage score): 1
[7]
  Control of weed species, LOLPE (damage score): 2
[8]
  Control of weed species, ECHCG (damage score): 5
[9]
  Control of weed species, ALOMY (damage score): 0
[10]
  Control of weed species, AVEFA (damage score): 3
[11]
  Control of weed species, ORYSA (damage score): 1
[12]
  Control of weed species, TRZAW (damage score): 0

## Cc1nc(-c2cccnc2)sc1N(C)C(=S)SC(C)(C)C [Compound A23, tert-butyl N-methyl-N-[4-methyl-2-(3-pyridyl)thiazol-5-yl]carbamodithioate]
[1]
  Control of weed species, LOLPE (damage score): 0
[2]
  Control of weed species, ECHCG (damage score): 1
[3]
  Control of weed species, ALOMY (damage score): 0
[4]
  Control of weed species, AVEFA (damage score): 1
[5]
  Control of weed species, ORYSA (damage score): 0
[6]
  Control of weed species, TRZAW (damage score): 0
[7]
  Control of weed species, LOLPE (damage score): 0
[8]
  Control of weed species, ECHCG (damage score): 0
[9]
  Control of weed species, ALOMY (damage score): 0
[10]
  Control of weed species, AVEFA (damage score): 0
[11]
  Control of weed species, ORYSA (damage score): 0
[12]
  Control of weed species, TRZAW (damage score): 0
